# Active and inactive are the calls of the source.
# Experiments:
# [1] = HIV-1 AD8 envelope cell-cell fusion blockers – cherry-pick, dose response (AID 652062); assay type: functional, cell-based;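 also: luciferase signal from cell-cell fusion driven by HIV-1 clade B AD8 Env; potency is for inhibitors of fusion seen as a drop in luminescence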
# [2] = off-target signal loss in HeLa-CEM21 co-culture – HeLa F-luc CTL cells, cherry-picked, counter-screen for HIV-1 Env fusion inhibitor project, dose response (AID 652040); assay type: functional, cell-based;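 also: potency for signal decrease marking cytotoxic or nonspecific inhibition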
# [3] = blockers of HIV-1 envelope-mediated cell-cell fusion – cherry-pick, dose response (AID 652057); assay type: functional, cell-based
# [4] = blockers of HIV-1 ZM109 envelope-driven cell-cell fusion – HeLa effector, CEM target cells, luciferase, cherry-pick, dose response (AID 652058); assay type: functional, cell-based;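 also: luciferase signal from HIV-1 Env mediated cell-cell fusion of effector and target cells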
# Genome polyprotein = Genome polyprotein (dengue virus type 2, UniProt P29990); test: flavivirus cap methylation enzyme inhibition – biochemical, confirmation dose response, primary screen (AID 588689); assay type: functional
# [5] = molecular target: T1, Carboxy-terminal domain RNA polymerase II polypeptide A small phosphatase 1 (Homo sapiens, UniProt Q9GZU7); test: CTDSP1 inhibitors, concentration-response, biochemical, absorbance readout, ultra-high-throughput screen actives (AID 540297); assay type: functional
# T1 sequence (Q9GZU7 whole entry): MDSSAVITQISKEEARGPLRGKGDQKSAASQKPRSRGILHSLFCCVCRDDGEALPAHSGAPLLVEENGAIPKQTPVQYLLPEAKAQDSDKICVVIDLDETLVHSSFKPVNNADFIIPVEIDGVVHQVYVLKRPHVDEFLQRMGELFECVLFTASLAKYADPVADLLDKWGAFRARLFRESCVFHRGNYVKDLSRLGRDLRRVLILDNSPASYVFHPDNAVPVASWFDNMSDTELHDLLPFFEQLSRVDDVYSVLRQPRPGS
# Cytochrome P450 3A4 [6] = molecular target: T2, Cytochrome P450 3A4 (Homo sapiens, UniProt P08684);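 also: CYP3A4 tested as one member of a cytochrome P450 panel screen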
# Cytochrome P450 2C19 = Cytochrome P450 2C19 (Homo sapiens, UniProt P33261); test: Cytochrome panel assay with activity outcomes. Panel member name: p450-cyp2c19 Compounds with AC50 equal or less than 10 uM are considered active; assay type: functional; conditions: read-out: AC50
# Cytochrome P450 2C9 [7] = molecular target: T3, Cytochrome P450 2C9 (Homo sapiens, UniProt P11712)
# Streptococcus = test: GAS UMAA2166 growth inhibition – luminescence, BacTiterGlo, counter-screen for streptokinase expression inhibitor project, dose response (AID 1915); assay type: functional, organism-based;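 also: potency for reduction of bacterial viability or growth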
# [8] = test system: Streptococcus sp. 'group A'; test: Streptococcus pyogenes SK(-)GAS viability under kanamycin – luminescence, BacTiterGlo, confirmation, counter-screen for streptokinase expression inhibitor project, dose response (AID 1900); assay type: functional, organism-based
# Streptokinase A = molecular target: T4, Streptokinase A (Streptococcus pyogenes serotype M1, UniProt P10520); test: viability-normalized secreted streptokinase activity reduction – plasminogen activation absorbance, OD405, dose response (AID 1914); assay type: functional, Streptococcus pyogenes M1 GAS;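 also: secreted streptokinase activity via plasminogen activation per viability signal from cell pellet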
# T4 sequence (P10520 whole entry): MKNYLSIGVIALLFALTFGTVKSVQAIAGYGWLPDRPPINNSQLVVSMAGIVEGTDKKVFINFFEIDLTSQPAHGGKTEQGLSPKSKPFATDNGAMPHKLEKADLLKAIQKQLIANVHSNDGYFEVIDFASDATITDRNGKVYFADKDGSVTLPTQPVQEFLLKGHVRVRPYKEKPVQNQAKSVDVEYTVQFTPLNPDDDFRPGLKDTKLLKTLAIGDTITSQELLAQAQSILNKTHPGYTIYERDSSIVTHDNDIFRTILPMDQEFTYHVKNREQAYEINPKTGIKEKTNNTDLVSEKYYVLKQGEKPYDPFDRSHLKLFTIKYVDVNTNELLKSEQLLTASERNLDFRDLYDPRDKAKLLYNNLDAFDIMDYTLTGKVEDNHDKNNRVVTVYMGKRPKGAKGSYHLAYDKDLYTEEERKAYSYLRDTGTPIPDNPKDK
# Phospholipase A2 = Phospholipase A2 (Homo sapiens, UniProt P04054); assay type: functional;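 also: confirmatory dose-response counterscreen on phospholipase A2, testing hits that came from an ultra-high-throughput screen for ATG4B inhibitors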
# Cysteine protease ATG4B = molecular target: T5, Cysteine protease ATG4B (Homo sapiens, UniProt Q9Y4P1); assay type: functional;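 also: Fluorescence-based dose-response confirmation assay measuring inhibition of ATG4B activity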
# T5 sequence (Q9Y4P1 whole entry): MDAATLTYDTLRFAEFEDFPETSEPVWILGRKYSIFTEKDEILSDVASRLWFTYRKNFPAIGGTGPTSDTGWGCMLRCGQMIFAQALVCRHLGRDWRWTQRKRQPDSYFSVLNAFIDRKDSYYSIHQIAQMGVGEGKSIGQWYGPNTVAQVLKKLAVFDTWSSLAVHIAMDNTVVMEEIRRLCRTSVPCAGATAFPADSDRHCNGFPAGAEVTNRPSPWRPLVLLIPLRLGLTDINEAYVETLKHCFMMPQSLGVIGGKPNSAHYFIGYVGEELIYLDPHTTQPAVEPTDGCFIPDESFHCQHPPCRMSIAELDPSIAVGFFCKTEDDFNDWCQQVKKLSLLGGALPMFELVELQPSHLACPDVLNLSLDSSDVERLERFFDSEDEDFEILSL
# cells [9] = test: cells
# [10] = molecular target: T6, Oxysterols receptor LXR-beta (Homo sapiens, UniProt P55055); assay type: functional, cell-based;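 also: Cell-based luminescence dose-response assay of agonist activity at LXR, run as a confirmatory counterscreen to a daf-12 agonist screen; HEK293 cells with Gal4-LXR fusion and GAL4-driven luciferase reporter; agonist potency from rising luciferase signal of a Gal4-LXR reporter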
# T6 sequence (P55055 whole entry): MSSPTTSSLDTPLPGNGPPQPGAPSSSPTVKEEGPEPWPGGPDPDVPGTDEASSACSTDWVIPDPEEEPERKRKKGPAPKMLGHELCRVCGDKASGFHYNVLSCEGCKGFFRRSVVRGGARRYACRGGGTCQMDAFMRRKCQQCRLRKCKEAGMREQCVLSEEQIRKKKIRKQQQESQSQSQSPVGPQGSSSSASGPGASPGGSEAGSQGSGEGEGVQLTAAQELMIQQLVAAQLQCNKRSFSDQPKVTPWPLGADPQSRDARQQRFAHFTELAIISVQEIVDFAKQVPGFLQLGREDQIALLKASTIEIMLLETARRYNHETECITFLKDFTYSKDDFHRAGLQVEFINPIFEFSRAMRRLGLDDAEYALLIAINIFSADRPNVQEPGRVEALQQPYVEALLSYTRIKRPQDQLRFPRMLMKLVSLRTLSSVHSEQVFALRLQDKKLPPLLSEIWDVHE
# Cytochrome P450 1A2 = molecular target: T7, Cytochrome P450 1A2 (Homo sapiens, UniProt P05177);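 also: PubChem cytochrome P450 panel assay, CYP1A2 panel member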
# T7 sequence (P05177 whole entry): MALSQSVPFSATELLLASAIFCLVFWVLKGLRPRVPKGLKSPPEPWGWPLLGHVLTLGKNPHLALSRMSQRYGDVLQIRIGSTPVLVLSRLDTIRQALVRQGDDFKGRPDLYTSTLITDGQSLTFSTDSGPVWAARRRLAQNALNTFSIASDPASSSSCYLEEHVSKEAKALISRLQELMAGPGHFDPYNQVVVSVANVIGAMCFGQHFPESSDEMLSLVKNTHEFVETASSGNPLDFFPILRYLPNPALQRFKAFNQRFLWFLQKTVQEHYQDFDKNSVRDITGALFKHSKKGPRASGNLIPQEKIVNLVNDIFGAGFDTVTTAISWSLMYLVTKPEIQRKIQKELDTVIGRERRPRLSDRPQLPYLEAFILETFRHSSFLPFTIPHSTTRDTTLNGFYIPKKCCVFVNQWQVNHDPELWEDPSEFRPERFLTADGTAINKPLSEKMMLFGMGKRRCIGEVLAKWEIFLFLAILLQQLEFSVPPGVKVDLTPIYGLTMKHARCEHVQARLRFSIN
# Cytochrome P450 2C9 [11] = molecular target: T3, Cytochrome P450 2C9; remark: listed apart in the source
# [12] = OVCAR8 cell viability loss – plate reader, dry powder samples, PAX8 project, dose response (AID 743197); assay type: functional, cell-based; conditions: OVCAR-8
# Paired box protein Pax-8 = Paired box protein Pax-8 (Homo sapiens, UniProt Q06710); test: PAX8 transcriptional activity inhibition in RMG-I – RMG-I cells, luciferase, cherry-pick, dose response (AID 687027); assay type: functional, cell-based;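 also: luciferase reporter driven by Pax8 target thyroperoxidase promoter measured by SteadyGlo luminescence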
# [13] = Trypanosoma cruzi growth suppression in host cells – NIH3T3 host cells, beta-gal luminescence, confirmation (AID 2044); assay type: functional, cell-based;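 also: intracellular parasites grown in NIH/3T3 mouse fibroblasts as host cells; luminescent beta-galactosidase reporter signal from transgenic T. cruzi replicating inside host cells; inhibitors lower the luminescence signal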
# [14] = NIH3T3 cell viability loss – ATP luminescence, mouse fibroblasts, counter-screen, dose response (AID 2010); assay type: functional, cell-based;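 also: cells exposed to compound for about 90 hours before reading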
# [15] = molecular target: Heat shock protein HSP 90-alpha (Homo sapiens, UniProt P07900); assay type: functional, organism-based
# cells [16] = assay type: functional
# Cytochrome P450 2D6 = Cytochrome P450 2D6 (Homo sapiens, UniProt P10635);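 also: CYP2D6 member of a cytochrome P450 panel assay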
# [17] = molecular target: T8, Rac GTPase-activating protein 1 (Homo sapiens, UniProt Q9H0H5); test: blockers of MgcRacGAP-driven Rac1 GTP hydrolysis – biochemical, ADP Hunter fluorescence, primary and confirmatory, confirmation (AID 624330); assay type: functional
# T8 sequence (Q9H0H5 whole entry): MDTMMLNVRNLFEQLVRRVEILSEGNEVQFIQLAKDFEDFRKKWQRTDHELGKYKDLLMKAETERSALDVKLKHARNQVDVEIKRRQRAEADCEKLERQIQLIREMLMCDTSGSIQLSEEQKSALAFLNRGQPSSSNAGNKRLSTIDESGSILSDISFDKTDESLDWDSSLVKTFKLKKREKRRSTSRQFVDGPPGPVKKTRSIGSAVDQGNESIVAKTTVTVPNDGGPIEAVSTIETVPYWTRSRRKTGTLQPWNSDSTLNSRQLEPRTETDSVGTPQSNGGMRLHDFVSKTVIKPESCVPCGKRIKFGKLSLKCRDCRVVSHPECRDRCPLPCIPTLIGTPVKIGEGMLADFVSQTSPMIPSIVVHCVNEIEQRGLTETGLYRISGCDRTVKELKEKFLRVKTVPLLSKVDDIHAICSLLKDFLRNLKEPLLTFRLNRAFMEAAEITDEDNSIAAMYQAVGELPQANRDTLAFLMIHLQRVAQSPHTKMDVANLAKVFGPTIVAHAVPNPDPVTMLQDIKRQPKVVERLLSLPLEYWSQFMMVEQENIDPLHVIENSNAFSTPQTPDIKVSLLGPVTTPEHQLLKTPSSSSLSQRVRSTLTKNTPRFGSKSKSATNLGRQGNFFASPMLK
# Cytochrome P450 3A4 [18] = molecular target: T2, Cytochrome P450 3A4; remark: listed apart in the source
# T2 sequence (P08684 whole entry): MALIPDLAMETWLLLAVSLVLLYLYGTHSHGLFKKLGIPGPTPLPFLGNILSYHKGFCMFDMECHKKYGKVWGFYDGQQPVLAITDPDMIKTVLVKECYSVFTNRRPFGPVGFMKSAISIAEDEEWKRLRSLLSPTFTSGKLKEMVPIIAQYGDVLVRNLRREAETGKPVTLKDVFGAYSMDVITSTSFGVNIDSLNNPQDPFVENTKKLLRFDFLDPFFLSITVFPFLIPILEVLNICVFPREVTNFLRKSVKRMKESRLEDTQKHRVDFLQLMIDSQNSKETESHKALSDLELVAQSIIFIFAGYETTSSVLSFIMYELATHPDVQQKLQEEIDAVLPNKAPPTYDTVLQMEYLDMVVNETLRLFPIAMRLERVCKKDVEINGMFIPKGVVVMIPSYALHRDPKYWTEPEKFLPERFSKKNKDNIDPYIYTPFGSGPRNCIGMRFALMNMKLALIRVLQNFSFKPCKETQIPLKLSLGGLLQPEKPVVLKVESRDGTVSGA
# Chain of Cytochrome P450 2C19 (P33261 whole entry): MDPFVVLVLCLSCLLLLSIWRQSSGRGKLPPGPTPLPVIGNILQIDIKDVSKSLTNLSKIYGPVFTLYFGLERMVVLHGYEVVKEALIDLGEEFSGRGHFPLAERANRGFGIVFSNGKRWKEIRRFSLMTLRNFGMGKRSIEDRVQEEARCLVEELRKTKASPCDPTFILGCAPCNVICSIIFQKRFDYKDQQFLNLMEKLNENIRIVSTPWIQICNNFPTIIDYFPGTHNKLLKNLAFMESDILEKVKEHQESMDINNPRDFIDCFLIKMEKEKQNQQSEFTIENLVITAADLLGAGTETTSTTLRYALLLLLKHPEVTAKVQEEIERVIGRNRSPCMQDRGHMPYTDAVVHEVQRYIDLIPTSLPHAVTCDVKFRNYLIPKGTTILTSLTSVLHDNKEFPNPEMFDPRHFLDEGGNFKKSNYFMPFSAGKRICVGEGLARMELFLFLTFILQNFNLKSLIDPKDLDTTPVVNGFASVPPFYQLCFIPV
# Chain of Genome polyprotein (P29990 2492-3391 limits assumed): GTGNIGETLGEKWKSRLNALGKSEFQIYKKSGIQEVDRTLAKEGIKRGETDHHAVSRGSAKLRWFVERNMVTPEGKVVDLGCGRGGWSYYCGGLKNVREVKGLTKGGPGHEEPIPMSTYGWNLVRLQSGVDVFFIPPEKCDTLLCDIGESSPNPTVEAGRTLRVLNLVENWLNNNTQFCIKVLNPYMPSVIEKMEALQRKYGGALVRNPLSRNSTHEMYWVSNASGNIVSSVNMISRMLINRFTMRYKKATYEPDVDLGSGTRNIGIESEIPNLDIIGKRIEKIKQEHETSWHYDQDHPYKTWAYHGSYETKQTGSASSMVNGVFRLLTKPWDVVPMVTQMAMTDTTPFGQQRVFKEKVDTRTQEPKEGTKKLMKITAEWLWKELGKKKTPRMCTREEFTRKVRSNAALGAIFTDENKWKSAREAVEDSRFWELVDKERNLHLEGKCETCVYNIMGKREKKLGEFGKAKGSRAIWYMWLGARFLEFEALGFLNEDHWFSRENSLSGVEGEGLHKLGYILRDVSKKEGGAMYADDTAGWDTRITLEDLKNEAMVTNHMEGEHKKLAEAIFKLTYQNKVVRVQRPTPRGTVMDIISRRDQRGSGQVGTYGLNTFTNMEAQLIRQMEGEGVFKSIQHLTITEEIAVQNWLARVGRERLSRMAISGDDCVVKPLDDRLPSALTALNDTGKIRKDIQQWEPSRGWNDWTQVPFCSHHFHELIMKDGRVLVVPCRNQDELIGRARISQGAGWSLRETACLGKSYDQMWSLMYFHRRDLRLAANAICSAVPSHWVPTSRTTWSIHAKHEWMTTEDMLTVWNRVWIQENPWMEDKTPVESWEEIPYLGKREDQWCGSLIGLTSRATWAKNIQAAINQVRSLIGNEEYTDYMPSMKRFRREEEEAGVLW
# Chain of Phospholipase A2 (P04054 whole entry): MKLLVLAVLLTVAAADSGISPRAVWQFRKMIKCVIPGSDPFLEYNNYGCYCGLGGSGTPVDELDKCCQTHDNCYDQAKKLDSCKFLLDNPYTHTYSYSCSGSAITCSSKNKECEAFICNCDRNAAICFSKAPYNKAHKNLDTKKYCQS
# T3 sequence (P11712 whole entry): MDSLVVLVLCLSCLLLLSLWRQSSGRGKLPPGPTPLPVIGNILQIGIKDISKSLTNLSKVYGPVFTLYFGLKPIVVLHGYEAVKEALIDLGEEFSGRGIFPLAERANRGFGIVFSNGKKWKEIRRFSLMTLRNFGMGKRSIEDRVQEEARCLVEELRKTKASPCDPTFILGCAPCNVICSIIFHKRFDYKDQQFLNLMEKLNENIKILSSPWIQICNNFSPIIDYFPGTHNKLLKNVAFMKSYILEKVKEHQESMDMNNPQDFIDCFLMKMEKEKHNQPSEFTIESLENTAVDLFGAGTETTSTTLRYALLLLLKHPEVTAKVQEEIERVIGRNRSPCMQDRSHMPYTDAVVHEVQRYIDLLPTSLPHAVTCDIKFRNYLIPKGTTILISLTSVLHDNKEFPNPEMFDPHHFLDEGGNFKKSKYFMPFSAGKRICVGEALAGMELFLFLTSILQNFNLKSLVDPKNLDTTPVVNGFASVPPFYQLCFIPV
# Chain of Paired box protein Pax-8 (Q06710 whole entry): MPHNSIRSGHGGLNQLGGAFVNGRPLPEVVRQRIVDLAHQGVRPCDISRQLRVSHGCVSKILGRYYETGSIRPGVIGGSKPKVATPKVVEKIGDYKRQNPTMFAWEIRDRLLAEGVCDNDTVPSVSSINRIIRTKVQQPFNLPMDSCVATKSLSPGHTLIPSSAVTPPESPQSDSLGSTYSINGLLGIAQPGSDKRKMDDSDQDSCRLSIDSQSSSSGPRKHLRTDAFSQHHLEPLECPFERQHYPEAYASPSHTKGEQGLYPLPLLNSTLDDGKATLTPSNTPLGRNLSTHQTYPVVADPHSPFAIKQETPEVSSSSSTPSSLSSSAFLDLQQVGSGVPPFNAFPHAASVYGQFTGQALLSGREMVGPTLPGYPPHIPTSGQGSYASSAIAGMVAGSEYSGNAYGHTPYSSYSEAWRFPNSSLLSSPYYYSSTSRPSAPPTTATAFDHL
# Chain of Cytochrome P450 2D6 (P10635 whole entry): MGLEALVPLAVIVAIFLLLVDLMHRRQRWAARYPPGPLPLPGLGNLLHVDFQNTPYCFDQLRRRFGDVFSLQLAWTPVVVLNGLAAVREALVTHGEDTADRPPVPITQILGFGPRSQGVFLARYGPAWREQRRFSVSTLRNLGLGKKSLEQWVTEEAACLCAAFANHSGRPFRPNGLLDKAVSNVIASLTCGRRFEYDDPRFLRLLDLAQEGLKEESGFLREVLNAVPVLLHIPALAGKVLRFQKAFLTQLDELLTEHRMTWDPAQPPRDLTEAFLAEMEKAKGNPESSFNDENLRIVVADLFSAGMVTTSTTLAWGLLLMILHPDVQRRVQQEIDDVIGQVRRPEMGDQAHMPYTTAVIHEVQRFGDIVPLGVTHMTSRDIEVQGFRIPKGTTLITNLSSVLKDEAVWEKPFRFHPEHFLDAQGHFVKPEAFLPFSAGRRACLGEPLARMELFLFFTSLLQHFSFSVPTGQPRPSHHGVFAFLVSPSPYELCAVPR
smiles,measurement,setting,value
COc1ccccc1[C@@H]1C(c2ccc(F)cc2)=NN(c2ccccc2)[C@H]1C(=O)N1CCOC1=O,AC50,[1],12.6 µM (active)
same,AC50,[2],7.61 µM (active)
same,AC50,[3],3.59 µM (active)
same,AC50,[4],7.77 µM (active)
O=c1nc2n(c(O)c1C(c1ccc(O)cc1)c1c(O)nc3n(c1=O)CCS3)CCS2 (centres undefined),IC50,Genome polyprotein,48.5 µM (active)
O=C(N/N=C/c1ccco1)C1CC1c1ccccc1 (centres undefined),IC50,[5],9.59 µM (active)
COc1ccc2c(Cl)cc(NC(=S)Nc3ccccc3)nc2c1,AC50,Cytochrome P450 3A4 [6],inconclusive
same,AC50,Cytochrome P450 2C19,3.16 µM (inconclusive)
same,AC50,Cytochrome P450 2C9 [7],3.98 µM (inconclusive)
CCOC(=O)c1ccc2nc(C)c(CCC(C)=O)c(Cl)c2c1,AC50,Cytochrome P450 3A4 [6],inconclusive
same,AC50,Cytochrome P450 2C9 [7],1 µM (inconclusive)
CCC[N+]1(CC#CC2(O)CCCCC2)CCOCC1,EC50,Streptococcus,> 150 µM (not active)
same,EC50,[8],> 150 µM (not active)
same,EC50,Streptokinase A,> 150 µM (not active)
same,IC50,[5],5.44 µM (active)
CCOc1cc(/C=C2/SC(=S)N(CC(=O)O)C2=O)ccc1OC(=O)c1cccs1,IC50,Genome polyprotein,56.3 µM (active)
CCOC(=O)c1c(NC=C2C(=O)CC(C)(C)CC2=O)sc(C)c1C,IC50,Phospholipase A2,5.12 µM (active)
same,IC50,Cysteine protease ATG4B,5.45 µM (active)
Cc1cccc(N2C(=O)N3[C@H](c4ccc(Br)cc4)[C@@H]4C(=O)N(C(C)(C)C)C(=O)[C@@H]4[C@]3(C)C2=O)c1,AC50,[1],1.69 µM (active)
same,AC50,[2],0.936 µM (active)
same,AC50,[3],0.48 µM (active)
same,AC50,[4],0.746 µM (active)
C/C(=N\Nc1nc2ccccc2s1)c1cccs1,EC50,cells [9],> 67.5 µM (inactive)
same,EC50,[10],> 67.5 µM (inactive)
Cc1sc2nc(C(C)C)nc(SCC(=O)NCc3ccco3)c2c1C,IC50,Phospholipase A2,5.93 µM (active)
same,IC50,Cysteine protease ATG4B,11.1 µM (active)
Cn1cccc1C(=O)N1CCC2(CC1)CCN(c1ccccc1)CC2,AC50,Cytochrome P450 3A4 [6],inconclusive
same,AC50,Cytochrome P450 1A2,12.6 µM (inconclusive)
Cc1ccc(OCC(=O)NNC(=O)c2cc3ccccc3o2)cc1C,AC50,Cytochrome P450 2C9 [11],inconclusive
same,AC50,Cytochrome P450 2C19,3.55 µM (inconclusive)
same,AC50,Cytochrome P450 1A2,2.51 µM (inconclusive)
C[C@@H]1CCCCO[C@H](CN(C)Cc2ccc3c(c2)OCO3)[C@@H](C)CN([C@@H](C)CO)C(=O)c2cc(NS(=O)(=O)c3ccc(Cl)cc3)ccc2O1,AC50,[12],> 70 µM (inactive)
same,AC50,Paired box protein Pax-8,9.45 µM (active)
COc1ccc(OC)c(N2C(=O)NC(=O)/C(=C/c3ccc([N+](=O)[O-])s3)C2=O)c1,EC50,[13],2.1 µM (active)
same,IC50,Genome polyprotein,18.8 µM (active)
same,EC50,[14],> 60 µM (inconclusive)
same,AC50,[15],3.06 µM (active)
same,IC50,cells [16],23.7 µM (active)
COc1cc(NS(=O)(=O)c2ccc(Nc3nc(-c4cccc([N+](=O)[O-])c4)cs3)cc2)nc(OC)n1,IC50,Phospholipase A2,9.57 µM (active)
same,IC50,Cysteine protease ATG4B,11.3 µM (active)
c1ccc2c(CSCCc3ccncc3)cccc2c1,AC50,Cytochrome P450 3A4 [6],inconclusive
C=CCN([C@@H](CC(C)C)C(=O)OC)S(=O)(=O)N(CC=C)[C@@H](CC(C)C)C(=O)OC,AC50,[1],25.9 µM (active)
same,AC50,[2],21 µM (active)
same,AC50,[3],6.72 µM (active)
same,AC50,[4],24.7 µM (active)
Cc1cc(C(=O)c2cnc(/N=C/N(C)C)s2)cc(C)c1O,AC50,Cytochrome P450 2C9 [11],inconclusive
same,AC50,Cytochrome P450 2C19,25.1 µM (inconclusive)
same,AC50,Cytochrome P450 2D6,25.1 µM (inconclusive)
same,IC50,[17],108 µM (active)
same,AC50,Cytochrome P450 3A4 [18],25.1 µM (inconclusive)
O=C(COc1ccccc1Cl)Nc1ccc(Cl)cn1,EC50,cells [9],> 67.5 µM (inactive)
same,EC50,[10],> 67.5 µM (inactive)
C[C@H](CO)N1C[C@H](C)[C@H](CN(C)Cc2ccc(-c3ccccc3)cc2)Oc2ccc(NS(=O)(=O)c3ccc(F)cc3)cc2CC1=O,AC50,[12],> 70 µM (inactive)
same,AC50,Paired box protein Pax-8,27.1 µM (active)
